Measurements reported in the kinase profiling compilation of Christmann-Franck et al. (2016).
Several values for one entry are separate records, joined by “and”; a condition that tells them apart may be missing. Equal values may be shown once. Each block holds one compound with its values, some of them ahead of it.

Experiments:
Experiment in all cases: radiometric filter-binding kinase assay, Kinase HotSpot
Conditions in all cases: compound 0.5 µM; ATP 10 µM
IKBKE (human) = IKBKE (human) (UniProt Q14164)
Chain of IKBKE (human) (Q14164 whole entry, looked up): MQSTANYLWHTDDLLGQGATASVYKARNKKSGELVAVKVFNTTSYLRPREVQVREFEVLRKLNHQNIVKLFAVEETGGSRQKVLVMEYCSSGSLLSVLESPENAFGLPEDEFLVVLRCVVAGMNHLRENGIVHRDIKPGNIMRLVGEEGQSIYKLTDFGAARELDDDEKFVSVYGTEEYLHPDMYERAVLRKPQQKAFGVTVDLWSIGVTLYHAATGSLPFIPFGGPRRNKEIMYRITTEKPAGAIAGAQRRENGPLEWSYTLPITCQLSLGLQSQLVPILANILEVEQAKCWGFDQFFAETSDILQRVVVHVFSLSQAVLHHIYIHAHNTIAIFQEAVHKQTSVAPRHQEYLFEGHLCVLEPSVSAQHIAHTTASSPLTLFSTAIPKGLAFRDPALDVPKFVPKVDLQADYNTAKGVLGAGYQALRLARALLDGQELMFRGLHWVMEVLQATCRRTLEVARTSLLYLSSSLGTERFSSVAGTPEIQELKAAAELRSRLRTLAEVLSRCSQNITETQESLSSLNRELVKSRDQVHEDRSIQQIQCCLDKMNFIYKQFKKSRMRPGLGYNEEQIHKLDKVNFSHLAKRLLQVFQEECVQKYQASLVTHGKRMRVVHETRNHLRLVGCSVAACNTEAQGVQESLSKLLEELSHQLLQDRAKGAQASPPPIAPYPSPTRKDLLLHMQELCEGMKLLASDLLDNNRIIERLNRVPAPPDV

SRMS (human) = SRMS (human) (UniProt Q9H3Y6)
ROCK1 (human) = ROCK1 (human) (UniProt Q13464)
CAMK2D (human) = CAMK2D (human) (UniProt Q13557)
Chain of CAMK2D (human) (Q13557 whole entry, looked up): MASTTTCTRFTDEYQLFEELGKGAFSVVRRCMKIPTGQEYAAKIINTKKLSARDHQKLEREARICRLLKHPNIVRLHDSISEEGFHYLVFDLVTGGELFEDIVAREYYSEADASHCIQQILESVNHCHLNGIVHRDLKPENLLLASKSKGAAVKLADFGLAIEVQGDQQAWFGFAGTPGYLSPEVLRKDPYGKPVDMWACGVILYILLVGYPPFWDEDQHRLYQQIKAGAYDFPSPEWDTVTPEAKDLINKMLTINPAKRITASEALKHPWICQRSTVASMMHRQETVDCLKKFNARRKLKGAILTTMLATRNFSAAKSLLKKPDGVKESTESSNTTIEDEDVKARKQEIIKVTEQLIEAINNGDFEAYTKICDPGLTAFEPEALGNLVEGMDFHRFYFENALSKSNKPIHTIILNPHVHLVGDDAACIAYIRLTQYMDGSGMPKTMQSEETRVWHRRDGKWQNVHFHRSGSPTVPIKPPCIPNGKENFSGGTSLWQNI

SGK2 (human) = SGK2 (human) (UniProt Q9HBY8)
PRKG2 (human) = PRKG2 (human) (UniProt Q13237)
MLTK (human) = MLTK (human) (UniProt Q9NYL2)
EPHA4 (human) = EPHA4 (human) (UniProt P54764)
MAP3K7 TAB1 (human) = MAP3K7 TAB1 (human) (UniProt O43318+Q15750)
YES1 (human) = YES1 (human) (UniProt P07947)
NEK2 (human) = NEK2 (human) (UniProt P51955)
GSG2 (human) = GSG2 (human) (UniProt Q8TF76)
NEK9 (human) = NEK9 (human) (UniProt Q8TD19)
BRSK1 (human) = BRSK1 (human) (UniProt Q8TDC3)
AKT2 (human) = AKT2 (human) (UniProt P31751)
PBK (human) = PBK (human) (UniProt Q96KB5)
Chain of PBK (human) (Q96KB5 whole entry, looked up): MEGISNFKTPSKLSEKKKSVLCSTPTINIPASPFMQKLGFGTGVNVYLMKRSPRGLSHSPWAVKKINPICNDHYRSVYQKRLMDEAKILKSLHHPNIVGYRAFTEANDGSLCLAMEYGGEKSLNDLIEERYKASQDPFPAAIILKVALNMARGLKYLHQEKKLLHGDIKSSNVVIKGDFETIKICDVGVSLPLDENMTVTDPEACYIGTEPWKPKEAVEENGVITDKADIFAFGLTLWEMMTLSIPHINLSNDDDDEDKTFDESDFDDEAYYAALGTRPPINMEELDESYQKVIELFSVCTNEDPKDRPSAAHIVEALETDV

PRKCD (human) = PRKCD (human) (UniProt Q05655)
BMX (human) = BMX (human) (UniProt P51813)
Chain of BMX (human) (P51813 whole entry, looked up): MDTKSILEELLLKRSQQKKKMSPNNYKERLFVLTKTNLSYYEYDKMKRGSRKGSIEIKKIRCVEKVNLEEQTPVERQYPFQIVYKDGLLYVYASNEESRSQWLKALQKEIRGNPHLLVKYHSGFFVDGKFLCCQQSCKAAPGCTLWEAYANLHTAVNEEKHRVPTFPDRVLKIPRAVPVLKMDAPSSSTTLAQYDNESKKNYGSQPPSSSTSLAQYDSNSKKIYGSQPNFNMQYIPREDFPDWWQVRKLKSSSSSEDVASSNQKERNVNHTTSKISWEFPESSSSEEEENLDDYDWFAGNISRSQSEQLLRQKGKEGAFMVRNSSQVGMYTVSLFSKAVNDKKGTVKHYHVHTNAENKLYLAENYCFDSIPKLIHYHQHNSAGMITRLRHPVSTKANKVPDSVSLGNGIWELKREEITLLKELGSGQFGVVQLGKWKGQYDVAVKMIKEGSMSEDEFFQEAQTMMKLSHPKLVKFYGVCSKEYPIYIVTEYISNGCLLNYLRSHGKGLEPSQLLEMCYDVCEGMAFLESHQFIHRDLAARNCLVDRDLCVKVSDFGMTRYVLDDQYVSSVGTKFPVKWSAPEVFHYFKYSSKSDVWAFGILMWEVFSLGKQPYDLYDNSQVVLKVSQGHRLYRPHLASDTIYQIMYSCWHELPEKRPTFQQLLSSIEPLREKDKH

NTRK3 (human) = NTRK3 (human) (UniProt Q16288)
STK4 (human) = STK4 (human) (UniProt Q13043)
MYO3B (human) = MYO3B (human) (UniProt Q8WXR4)
Chain of MYO3B (human) (Q8WXR4 whole entry, looked up): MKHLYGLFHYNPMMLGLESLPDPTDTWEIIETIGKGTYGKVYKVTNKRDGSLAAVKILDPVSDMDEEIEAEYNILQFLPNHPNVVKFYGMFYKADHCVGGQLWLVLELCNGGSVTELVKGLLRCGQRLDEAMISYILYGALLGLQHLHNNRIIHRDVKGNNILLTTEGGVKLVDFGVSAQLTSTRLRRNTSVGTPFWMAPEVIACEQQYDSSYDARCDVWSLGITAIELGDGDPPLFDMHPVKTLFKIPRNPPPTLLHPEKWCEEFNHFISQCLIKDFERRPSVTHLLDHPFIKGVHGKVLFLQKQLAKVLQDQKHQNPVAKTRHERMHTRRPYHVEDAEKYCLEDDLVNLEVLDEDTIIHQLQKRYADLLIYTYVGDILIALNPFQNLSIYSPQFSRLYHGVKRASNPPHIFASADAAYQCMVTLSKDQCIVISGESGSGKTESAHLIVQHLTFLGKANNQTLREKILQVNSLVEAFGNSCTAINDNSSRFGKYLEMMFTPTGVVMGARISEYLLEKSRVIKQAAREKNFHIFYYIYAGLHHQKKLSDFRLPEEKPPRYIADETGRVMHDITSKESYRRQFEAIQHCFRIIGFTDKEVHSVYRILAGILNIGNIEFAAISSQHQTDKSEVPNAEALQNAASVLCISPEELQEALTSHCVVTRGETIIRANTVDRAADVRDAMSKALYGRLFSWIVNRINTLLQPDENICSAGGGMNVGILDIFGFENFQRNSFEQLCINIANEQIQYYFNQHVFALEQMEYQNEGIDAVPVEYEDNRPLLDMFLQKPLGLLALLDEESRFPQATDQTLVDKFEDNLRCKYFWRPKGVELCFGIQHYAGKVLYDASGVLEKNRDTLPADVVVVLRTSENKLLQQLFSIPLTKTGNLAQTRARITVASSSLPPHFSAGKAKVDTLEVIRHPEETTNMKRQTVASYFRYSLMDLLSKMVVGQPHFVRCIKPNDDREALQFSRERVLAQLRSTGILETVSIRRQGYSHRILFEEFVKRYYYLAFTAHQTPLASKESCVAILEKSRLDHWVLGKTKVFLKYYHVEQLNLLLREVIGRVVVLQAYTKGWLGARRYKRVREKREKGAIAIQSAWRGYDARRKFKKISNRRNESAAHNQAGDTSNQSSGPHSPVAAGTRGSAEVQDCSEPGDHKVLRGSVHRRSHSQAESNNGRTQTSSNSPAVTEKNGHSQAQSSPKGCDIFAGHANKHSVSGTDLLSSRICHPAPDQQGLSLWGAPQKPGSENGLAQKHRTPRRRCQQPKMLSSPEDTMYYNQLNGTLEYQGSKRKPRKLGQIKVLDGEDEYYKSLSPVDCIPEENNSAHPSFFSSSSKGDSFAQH

SLK (human) = SLK (human) (UniProt Q9H2G2)
TAOK1 (human) = TAOK1 (human) (UniProt Q7L7X3)
LIMK1 (human) = LIMK1 (human) (UniProt P53667)
VRK1 (human) = VRK1 (human) (UniProt Q99986)
PRKG1 (human) = PRKG1 (human) (UniProt Q13976)
PRKCB1 (human) = PRKCB1 (human) (UniProt P05771)
PRKCE (human) = PRKCE (human) (UniProt Q02156)
NUAK2 (human) = NUAK2 (human) (UniProt Q9H093)
CDK4 CCND1 (human) = CDK4 CCND1 (human) (UniProt P24385+P11802)
MAP2K1 (human) = MAP2K1 (human) (UniProt Q02750)
LCK (human) = LCK (human) (UniProt P06239)
Chain of LCK (human) (P06239 whole entry, looked up): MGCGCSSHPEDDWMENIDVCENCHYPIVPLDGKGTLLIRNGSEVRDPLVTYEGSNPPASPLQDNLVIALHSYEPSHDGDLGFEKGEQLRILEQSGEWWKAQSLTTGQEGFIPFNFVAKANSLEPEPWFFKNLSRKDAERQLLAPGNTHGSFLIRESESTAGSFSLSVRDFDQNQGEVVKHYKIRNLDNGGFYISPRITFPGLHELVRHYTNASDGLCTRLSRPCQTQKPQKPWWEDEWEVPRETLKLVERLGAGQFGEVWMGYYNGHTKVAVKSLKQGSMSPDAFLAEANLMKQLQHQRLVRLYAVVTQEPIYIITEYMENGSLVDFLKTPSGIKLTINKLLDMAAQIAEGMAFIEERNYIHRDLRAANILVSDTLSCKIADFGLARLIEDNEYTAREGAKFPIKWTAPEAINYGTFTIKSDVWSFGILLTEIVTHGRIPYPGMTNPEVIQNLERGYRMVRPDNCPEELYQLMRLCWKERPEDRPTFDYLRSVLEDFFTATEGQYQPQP

EPHB1 (human) = EPHB1 (human) (UniProt P54762)
CSK (human) = CSK (human) (UniProt P41240)
CLK2 (human) = CLK2 (human) (UniProt P49760)
DAPK1 (human) = DAPK1 (human) (UniProt P53355)
TTK (human) = TTK (human) (UniProt P33981)
CDC42BPB (human) = CDC42BPB (human) (UniProt Q9Y5S2)
PRKD3 (human) = PRKD3 (human) (UniProt O94806)
GRK6 (human) = GRK6 (human) (UniProt P43250)
DMPK (human) = DMPK (human) (UniProt Q09013)
RPS6KA5 KD2 (human) = RPS6KA5 KD2 (human) (UniProt O75582)
Chain of RPS6KA5 KD2 (human) (O75582 whole entry, looked up): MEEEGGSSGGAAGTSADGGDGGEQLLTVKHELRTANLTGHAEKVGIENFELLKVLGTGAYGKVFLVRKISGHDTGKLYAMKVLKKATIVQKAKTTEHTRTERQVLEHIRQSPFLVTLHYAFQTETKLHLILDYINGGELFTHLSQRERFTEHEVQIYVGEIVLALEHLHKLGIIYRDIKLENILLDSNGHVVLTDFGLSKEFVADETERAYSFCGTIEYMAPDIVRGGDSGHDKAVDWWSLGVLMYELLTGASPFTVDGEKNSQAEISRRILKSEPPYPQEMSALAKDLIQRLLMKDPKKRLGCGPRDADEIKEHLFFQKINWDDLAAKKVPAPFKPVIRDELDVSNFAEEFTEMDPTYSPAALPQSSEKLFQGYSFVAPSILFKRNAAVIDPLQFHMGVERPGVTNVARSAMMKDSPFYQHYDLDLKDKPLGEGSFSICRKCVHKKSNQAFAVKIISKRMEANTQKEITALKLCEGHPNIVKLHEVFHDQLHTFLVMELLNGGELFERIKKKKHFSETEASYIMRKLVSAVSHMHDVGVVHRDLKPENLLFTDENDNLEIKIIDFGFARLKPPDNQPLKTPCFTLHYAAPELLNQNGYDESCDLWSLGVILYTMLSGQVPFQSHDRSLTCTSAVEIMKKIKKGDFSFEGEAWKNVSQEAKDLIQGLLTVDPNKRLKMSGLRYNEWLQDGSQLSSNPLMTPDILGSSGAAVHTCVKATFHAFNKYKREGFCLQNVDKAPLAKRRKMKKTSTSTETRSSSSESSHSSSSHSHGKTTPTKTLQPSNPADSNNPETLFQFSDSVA

SMILES: O=C1NC(=O)C(c2cn(CCCn3ccnc3)c3ccccc23)=C1Nc1ccccc1
residual activity (IKBKE (human)): 87%
residual activity (SRMS (human)): 103%
residual activity (ROCK1 (human)): 99.2%
residual activity (CAMK2D (human)): 85.4%
residual activity (SGK2 (human)): 82.4%
residual activity (PRKG2 (human)): 80.3%
residual activity (MLTK (human)): 104%
residual activity (EPHA4 (human)): 111%
residual activity (MAP3K7 TAB1 (human)): 93.8%
residual activity (YES1 (human)): 89.3%
residual activity (NEK2 (human)): 106%
residual activity (GSG2 (human)): 95.8%
residual activity (NEK9 (human)): 89.1%
residual activity (BRSK1 (human)): 95.3%
residual activity (AKT2 (human)): 92.3%
residual activity (PBK (human)): 104%
residual activity (PRKCD (human)): 19.3%
residual activity (BMX (human)): 90%
residual activity (NTRK3 (human)): 40%
residual activity (STK4 (human)): 40.9%
residual activity (MYO3B (human)): 36%
residual activity (SLK (human)): 39.1%
residual activity (TAOK1 (human)): 101%
residual activity (LIMK1 (human)): 83.8%
residual activity (VRK1 (human)): 98.7%
residual activity (PRKG1 (human)): 88.8% and 89.3%
residual activity (PRKCB1 (human)): 9.78%
residual activity (PRKCE (human)): 12.8%
residual activity (NUAK2 (human)): 113%
residual activity (CDK4 CCND1 (human)): 99.1%
residual activity (MAP2K1 (human)): 90.6%
residual activity (LCK (human)): 99.4%
residual activity (EPHB1 (human)): 102%
residual activity (CSK (human)): 110%
residual activity (CLK2 (human)): 14.7%
residual activity (DAPK1 (human)): 99.2%
residual activity (TTK (human)): 121%
residual activity (CDC42BPB (human)): 105%
residual activity (PRKD3 (human)): 80%
residual activity (GRK6 (human)): 98.4%
residual activity (DMPK (human)): 104%
residual activity (RPS6KA5 KD2 (human)): 36.9%

SMILES: CCN(CC)CCNC(=O)c1c(C)[nH]c(/C=C2\C(=O)Nc3ccc(Cl)cc32)c1C
residual activity (IKBKE (human)): 29.4%
residual activity (SRMS (human)): 102%
residual activity (ROCK1 (human)): 89.7%
residual activity (CAMK2D (human)): 7.25%
residual activity (SGK2 (human)): 62.8%
residual activity (PRKG2 (human)): 82.6%
residual activity (MLTK (human)): 95.8%
residual activity (EPHA4 (human)): 88%
residual activity (MAP3K7 TAB1 (human)): 3.51%
residual activity (YES1 (human)): 5.29%
residual activity (NEK2 (human)): 77.2%
residual activity (GSG2 (human)): 82.9%
residual activity (NEK9 (human)): 95.9%
residual activity (BRSK1 (human)): 36.5%
residual activity (AKT2 (human)): 86.9%
residual activity (PBK (human)): 104%
residual activity (PRKCD (human)): 90.4%
residual activity (BMX (human)): 99.3%
residual activity (NTRK3 (human)): 1.87%
residual activity (STK4 (human)): 2.98%
residual activity (MYO3B (human)): 41.3%
residual activity (SLK (human)): 38%
residual activity (TAOK1 (human)): 65.8%
residual activity (LIMK1 (human)): 98.4%
residual activity (VRK1 (human)): 90.7%
residual activity (PRKG1 (human)): 64.2% and 76.4%
residual activity (PRKCB1 (human)): 98.1%
residual activity (PRKCE (human)): 102%
residual activity (NUAK2 (human)): 70.7%
residual activity (CDK4 CCND1 (human)): 74.1%
residual activity (MAP2K1 (human)): 33.1%
residual activity (LCK (human)): 11.8%
residual activity (EPHB1 (human)): 60.8%
residual activity (CSK (human)): 86.3%
residual activity (CLK2 (human)): 15.8%
residual activity (DAPK1 (human)): 47.7%
residual activity (TTK (human)): 59.8%
residual activity (CDC42BPB (human)): 96.1%
residual activity (PRKD3 (human)): 8.04%
residual activity (GRK6 (human)): 46.3%
residual activity (DMPK (human)): 102%
residual activity (RPS6KA5 KD2 (human)): 59%

residual activity (IKBKE (human)): 97.4%
residual activity (SRMS (human)): 14.2%
residual activity (ROCK1 (human)): 106%
residual activity (CAMK2D (human)): 99.5%
residual activity (SGK2 (human)): 95.4%
residual activity (PRKG2 (human)): 114%
residual activity (MLTK (human)): 70.3%
residual activity (EPHA4 (human)): 87.5%
residual activity (MAP3K7 TAB1 (human)): 92.3%
residual activity (YES1 (human)): 0.657%
residual activity (NEK2 (human)): 88.5%
residual activity (GSG2 (human)): 94.6%
residual activity (BRSK1 (human)): 99.7%
residual activity (AKT2 (human)): 99.7%
residual activity (PBK (human)): 114%
residual activity (PRKCD (human)): 99.6%
residual activity (BMX (human)): 10.1%
residual activity (NTRK3 (human)): 67.9%
residual activity (STK4 (human)): 77.8%
residual activity (MYO3B (human)): 103%
residual activity (SLK (human)): 96.5%
residual activity (TAOK1 (human)): 84.6%
residual activity (LIMK1 (human)): 95.7%
residual activity (VRK1 (human)): 84.8%
residual activity (PRKG1 (human)): 103% and 96.4%
residual activity (PRKCB1 (human)): 92.8%
residual activity (PRKCE (human)): 96%
residual activity (NUAK2 (human)): 96.8%
residual activity (CDK4 CCND1 (human)): 121%
residual activity (MAP2K1 (human)): 93%
residual activity (LCK (human)): 1.12%
residual activity (EPHB1 (human)): 94.5%
residual activity (CSK (human)): 3.4%
residual activity (CLK2 (human)): 95.2%
residual activity (DAPK1 (human)): 79.1%
residual activity (TTK (human)): 104%
residual activity (CDC42BPB (human)): 107%
residual activity (PRKD3 (human)): 89.4%
residual activity (GRK6 (human)): 92.6%
residual activity (DMPK (human)): 136%
residual activity (RPS6KA5 KD2 (human)): 90.5%
SMILES: Nc1ncnc2c1c(-c1ccc(Oc3ccccc3)cc1)cn2C1CCCC1
residual activity (NEK9 (human)): 96.6%
